From the NIST ThermoML archive (doi:10.1016/j.jct.2012.01.022)

Assay: xn = mol fraction of the nth substance listed
Conditions: 101 kPa, Liquid; for speed of sound: Sing-around technique in a fixed-path interferometer; for mass density: Vibrating tube method; for viscosity: Capillary tube (Ostwald / Ubbelohde) method

NCCN [ethane-1,2-diamine] + CCCCCCCCO
Conditions | mass density [kg/m3] | speed of sound [m/s] | viscosity [mPa·s]
293.15 K, x1 = 0.0595 | 828.135 | 1373.2 | –
293.15 K, x1 = 0.1021 | 830.247 | 1379.6 | –
293.15 K, x1 = 0.143 | 832.248 | 1386.6 | –
293.15 K, x1 = 0.2012 | 835.047 | 1396.5 | –
293.15 K, x1 = 0.2633 | 838.043 | 1407.3 | –
293.15 K, x1 = 0.3122 | 839.349 | 1412.6 | –
293.15 K, x1 = 0.4113 | 844.656 | 1433.8 | –
293.15 K, x1 = 0.4919 | 848.413 | 1450.2 | –
293.15 K, x1 = 0.5973 | 854.134 | 1475.6 | –
293.15 K, x1 = 0.7019 | 861.054 | 1508.3 | –
293.15 K, x1 = 0.7938 | 868.882 | 1546.3 | –
293.15 K, x1 = 0.8436 | 874.136 | 1573.2 | –
293.15 K, x1 = 0.8941 | 881.269 | 1609.4 | –
293.15 K, x1 = 0.9546 | 889.526 | 1651.7 | –
298.15 K, x1 = 0.0595 | 824.621 | 1356.2 | –
298.15 K, x1 = 0.0596 | – | – | 6.934
298.15 K, x1 = 0.1021 | 826.683 | 1362.6 | 6.834
298.15 K, x1 = 0.143 | 828.632 | 1369.4 | 6.713
298.15 K, x1 = 0.2012 | 831.36 | 1379.3 | 6.457
298.15 K, x1 = 0.2633 | 834.276 | 1389.9 | 6.099
298.15 K, x1 = 0.3122 | 835.547 | 1397.8 | 5.734
298.15 K, x1 = 0.4113 | 840.743 | 1415.9 | 4.957
298.15 K, x1 = 0.4919 | 844.426 | 1432 | 4.251
298.15 K, x1 = 0.5973 | 850.038 | 1457.1 | 3.406
298.15 K, x1 = 0.7019 | 856.833 | 1489 | 2.707
298.15 K, x1 = 0.7938 | 864.539 | 1526.5 | 2.214
298.15 K, x1 = 0.8436 | 869.72 | 1551.8 | 1.985
298.15 K, x1 = 0.8941 | 876.764 | 1582.4 | 1.751
298.15 K, x1 = 0.9546 | 884.925 | 1627.9 | 1.54
303.15 K, x1 = 0.0595 | – | 1338.9 | –
303.15 K, x1 = 0.0596 | – | – | 5.792
303.15 K, x1 = 0.1021 | – | 1345.7 | 5.694
303.15 K, x1 = 0.143 | – | 1352.5 | 5.569
303.15 K, x1 = 0.2012 | – | 1362.3 | 5.331
303.15 K, x1 = 0.2633 | – | 1372.1 | 5.041
303.15 K, x1 = 0.3122 | – | 1379.9 | 4.75
303.15 K, x1 = 0.4113 | – | 1398.3 | 4.144
303.15 K, x1 = 0.4919 | – | 1414 | 3.595
303.15 K, x1 = 0.5973 | – | 1438.7 | 2.917
303.15 K, x1 = 0.7019 | – | 1469.9 | 2.395
303.15 K, x1 = 0.7938 | – | 1506.3 | 1.956
303.15 K, x1 = 0.8436 | – | 1530.5 | 1.748
303.15 K, x1 = 0.8941 | – | 1559.9 | 1.532
303.15 K, x1 = 0.9546 | – | 1604.9 | 1.34
308.15 K, x1 = 0.0595 | 817.544 | 1322.8 | –
308.15 K, x1 = 0.0596 | – | – | 4.848
308.15 K, x1 = 0.1021 | 819.514 | 1329 | 4.757
308.15 K, x1 = 0.143 | 821.37 | 1335.8 | 4.662
308.15 K, x1 = 0.2012 | 823.957 | 1345.5 | 4.461
308.15 K, x1 = 0.2633 | 826.723 | 1355.7 | 4.211
308.15 K, x1 = 0.3122 | 827.934 | 1360.7 | 3.975
308.15 K, x1 = 0.4113 | 832.902 | 1380.8 | 3.497
308.15 K, x1 = 0.4919 | 836.434 | 1396.4 | 3.054
308.15 K, x1 = 0.5973 | 841.825 | 1420.5 | 2.515
308.15 K, x1 = 0.7019 | 848.372 | 1451.2 | 2.031
308.15 K, x1 = 0.7938 | 855.829 | 1487.3 | 1.669
308.15 K, x1 = 0.8436 | 860.863 | 1512.4 | 1.5
308.15 K, x1 = 0.8941 | 867.723 | 1546.7 | 1.342
308.15 K, x1 = 0.9546 | 875.69 | 1586.8 | 1.2
313.15 K, x1 = 0.0595 | 813.972 | 1306.6 | –
313.15 K, x1 = 0.1021 | 815.903 | 1313.3 | –
313.15 K, x1 = 0.143 | 817.713 | 1319.7 | –
313.15 K, x1 = 0.2012 | 820.239 | 1329 | –
313.15 K, x1 = 0.2633 | 822.931 | 1339.1 | –
313.15 K, x1 = 0.3122 | 824.111 | 1343.9 | –
313.15 K, x1 = 0.4113 | 828.963 | 1363.5 | –
313.15 K, x1 = 0.4919 | 832.42 | 1378.9 | –
313.15 K, x1 = 0.5973 | 837.701 | 1402.6 | –
313.15 K, x1 = 0.7019 | 844.123 | 1432.8 | –
313.15 K, x1 = 0.7938 | 851.455 | 1468.2 | –
313.15 K, x1 = 0.8436 | 856.411 | 1492.4 | –
313.15 K, x1 = 0.8941 | 863.18 | 1526.1 | –
313.15 K, x1 = 0.9546 | 871.049 | 1565.6 | –

NCCN [ethane-1,2-diamine] + CCCCCCO
Conditions | mass density [kg/m3] | speed of sound [m/s] | viscosity [mPa·s]
293.15 K, x1 = 0.0773 | 824.126 | 1338.6 | –
293.15 K, x1 = 0.1231 | 827.205 | 1348.9 | –
293.15 K, x1 = 0.1604 | 829.772 | 1358.1 | –
293.15 K, x1 = 0.1925 | 831.826 | 1365.8 | –
293.15 K, x1 = 0.2525 | 835.69 | 1381 | –
293.15 K, x1 = 0.2907 | 837.925 | 1390.2 | –
293.15 K, x1 = 0.3942 | 844.247 | 1417.8 | –
293.15 K, x1 = 0.5086 | 851.229 | 1450.5 | –
293.15 K, x1 = 0.6059 | 857.577 | 1482.3 | –
293.15 K, x1 = 0.7125 | 865.791 | 1522.6 | –
293.15 K, x1 = 0.81 | 874.361 | 1569 | –
293.15 K, x1 = 0.8583 | 879.425 | 1596.2 | –
293.15 K, x1 = 0.9028 | 884.825 | 1623.9 | –
293.15 K, x1 = 0.945 | 890.109 | 1652.7 | –
298.15 K, x1 = 0.0773 | 820.463 | 1321.6 | 4.258
298.15 K, x1 = 0.1213 | – | – | 4.169
298.15 K, x1 = 0.1231 | 823.489 | 1331.9 | –
298.15 K, x1 = 0.1604 | 826.005 | 1340.9 | 4.072
298.15 K, x1 = 0.1925 | 828.015 | 1348.6 | 4
298.15 K, x1 = 0.2525 | 831.807 | 1363.7 | 3.832
298.15 K, x1 = 0.2907 | 833.999 | 1372.7 | 3.72
298.15 K, x1 = 0.3942 | 840.22 | 1399.9 | 3.357
298.15 K, x1 = 0.5086 | 847.107 | 1432.2 | 2.926
298.15 K, x1 = 0.6059 | 853.36 | 1463.5 | 2.528
298.15 K, x1 = 0.7125 | 861.471 | 1503.1 | 2.149
298.15 K, x1 = 0.81 | 869.926 | 1548.7 | 1.851
298.15 K, x1 = 0.8583 | 874.936 | 1575.4 | 1.725
298.15 K, x1 = 0.9028 | 880.277 | 1602.8 | 1.619
298.15 K, x1 = 0.945 | 885.496 | 1630.9 | 1.536
303.15 K, x1 = 0.0773 | 816.783 | 1304.6 | 3.578
303.15 K, x1 = 0.1213 | 819.755 | 1314.9 | 3.551
303.15 K, x1 = 0.1604 | 822.223 | 1323.9 | 3.51
303.15 K, x1 = 0.1925 | 824.193 | 1331.5 | 3.452
303.15 K, x1 = 0.2525 | 827.911 | 1346.5 | 3.324
303.15 K, x1 = 0.2907 | 830.062 | 1355.4 | 3.234
303.15 K, x1 = 0.3942 | 836.182 | 1382.2 | 2.91
303.15 K, x1 = 0.5086 | 842.967 | 1413.9 | 2.537
303.15 K, x1 = 0.6059 | 849.135 | 1444.7 | 2.194
303.15 K, x1 = 0.7125 | 857.138 | 1483.7 | 1.88
303.15 K, x1 = 0.81 | 865.482 | 1528.5 | 1.612
303.15 K, x1 = 0.8583 | 870.432 | 1554.7 | 1.506
303.15 K, x1 = 0.9028 | 875.713 | 1581.5 | 1.428
303.15 K, x1 = 0.945 | 880.874 | 1609.2 | 1.336
308.15 K, x1 = 0.0773 | 813.087 | 1287.8 | 3.066
308.15 K, x1 = 0.1213 | 816.005 | 1298.2 | 3.025
308.15 K, x1 = 0.1604 | 818.427 | 1307 | 2.971
308.15 K, x1 = 0.1925 | 820.356 | 1314.6 | 2.923
308.15 K, x1 = 0.2525 | 824 | 1329.3 | 2.814
308.15 K, x1 = 0.2907 | 826.113 | 1338.1 | 2.737
308.15 K, x1 = 0.3942 | 832.134 | 1364.6 | 2.479
308.15 K, x1 = 0.5086 | 838.821 | 1395.8 | 2.174
308.15 K, x1 = 0.6059 | 844.903 | 1426.1 | 1.892
308.15 K, x1 = 0.7125 | 852.798 | 1464.4 | 1.62
308.15 K, x1 = 0.81 | 861.03 | 1508.5 | 1.404
308.15 K, x1 = 0.8583 | 865.917 | 1534.1 | 1.316
308.15 K, x1 = 0.9028 | 871.143 | 1560.6 | 1.241
308.15 K, x1 = 0.945 | 876.241 | 1587.7 | 1.18
313.15 K, x1 = 0.0773 | 809.362 | 1271.1 | –
313.15 K, x1 = 0.1213 | 812.228 | 1281.6 | –
313.15 K, x1 = 0.1604 | 814.602 | 1290.4 | –
313.15 K, x1 = 0.1925 | 816.496 | 1297.9 | –
313.15 K, x1 = 0.2525 | 820.069 | 1312.4 | –
313.15 K, x1 = 0.2907 | 822.144 | 1321.1 | –
313.15 K, x1 = 0.3942 | 828.065 | 1347 | –
313.15 K, x1 = 0.5086 | 834.657 | 1377.9 | –
313.15 K, x1 = 0.6059 | 840.646 | 1407.5 | –
313.15 K, x1 = 0.7125 | 848.435 | 1445.3 | –
313.15 K, x1 = 0.81 | 856.554 | 1488.5 | –
313.15 K, x1 = 0.8583 | 861.384 | 1513.6 | –
313.15 K, x1 = 0.9028 | 866.55 | 1539.7 | –
313.15 K, x1 = 0.945 | 871.587 | 1566.3 | –
